Results published in patent US10208033B2, “β-carboline, dihydro-β-carboline and tetrahydro-β-carboline alkaloid derivatives and preparation methods same and use in aspects of preventing and treating plant viruses, fungicides and insecticides” (NANKAI UNIVERSITY, priority 2013, dated 2019).

What was measured:
[1] = system: tobacco mosaic virus (TMV); assay: Anti-TMV in vivo therapeutic effect; set-up: species or system tobacco mosaic virus (host Nicotiana tabacum L.cv.Xanthi NN); conditions: Tobacco mosaic virus, read-out: Relative inhibition rate (%) In vivo therapy; for inhibition at 100 µg/mL: treatment dose 100 μg/mL; for inhibition at 500 µg/mL: treatment dose 500 μg/mL
[2] = system: Rhizoctonia solani; assay: Fungicidal (bactericidal) activity in vitro, PDA colony diameter; format: cell-based; conditions: Rhizoctonia solani, 96 h; 50 mg/kg
[3] = system: tobacco mosaic virus (TMV); assay: Anti-TMV in vivo protective effect; set-up: species or system tobacco mosaic virus (host Nicotiana tabacum L.cv.Xanthi NN); conditions: Tobacco mosaic virus, read-out: Relative inhibition rate (%) In vivo protection; for inhibition at 100 µg/mL: treatment dose 100 μg/mL; for inhibition at 500 µg/mL: treatment dose 500 μg/mL
[4] = system: Fusarium graminearumt; assay: microbe, parasite or virus in culture; format: cell-based; conditions: Fusarium, 96 h, read-out: Bactericidal activity (%) Fusarium graminearumt
[5] = system: Macrophoma kawatsukai; assay: Fungicidal (bactericidal) activity in vitro, PDA colony diameter; format: cell-based; conditions: 50 mg/kg
[6] = system: Phytophthora capsici; assay: as above; format: cell-based; conditions: Phytophthora capsici, 96 h; 50 mg/kg
[7] = system: Botrytis cinerea; assay: as above; format: cell-based; conditions: Botrytis cinerea, 96 h; 50 mg/kg
[8] = system: Fusarium fujikuroi; assay: as above; format: cell-based; conditions: Fusarium fujikuroi, 96 h; 50 mg/kg
[9] = system: armyworms; format: in vivo; conditions: concentration 600 mg/kg
[10] = system: Cercospora arachidicola; assay: Fungicidal (bactericidal) activity in vitro, PDA colony diameter; format: cell-based; conditions: Mycosphaerella arachidis, 96 h; 50 mg/kg
[11] = system: cotton bollworms; assay: whole plant or invertebrate; conditions: Helicoverpa armigera, in Gossypium hirsutum, read-out: Cotton bollworm Mortality (%)
Protocol: Experimental method of cotton bollworms: feed and drug mixing method: measure 3 mL of prepared solution and add it to about 27 g of newly prepared feed, thereby obtaining needed concentration through dilution by 10 times.

[12] = system: mosquito larvae; assay: whole plant or invertebrate; conditions: Culex pipiens, 24 h, read-out: Mosquito larvae Mortality (%)
In short: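 Early fourth-instar Culex pipiens pallens larvae from an indoor colony, 10 per beaker, exposed to test compound at 5 ppm in water, diluted from a 1000 ppm acetone mother solution. Blank: water containing 0.5 mL test solvent.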

[13] = system: Sclerotinia scleotiorum; assay: Fungicidal (bactericidal) activity in vitro, PDA colony diameter; format: cell-based; conditions: Sclerotinia, 96 h; 50 mg/kg
[14] = system: Alternaria solani; assay: as above; format: cell-based; conditions: Alternaria solani, 96 h; 50 mg/kg
[15] = system: Colletotrichum orbiculare; assay: as above; format: cell-based; conditions: Colletotrichum orbiculare, 96 h; 50 mg/kg
[16] = system: cucumber fusarium wilt; assay: as above; format: cell-based; conditions: Fusarium, 96 h; 50 mg/kg
[17] = system: tobacco mosaic virus (TMV); assay: Anti-TMV in vivo inactivation; set-up: species or system tobacco mosaic virus (host Nicotiana tabacum L.cv.Xanthi NN); conditions: Tobacco mosaic virus, read-out: Relative inhibition rate (%) In vivo inactivation; for inhibition at 100 µg/mL: treatment dose 100 μg/mL; for inhibition at 500 µg/mL: treatment dose 500 μg/mL
[18] = system: Rhizoctonia cereali; assay: Fungicidal (bactericidal) activity in vitro, PDA colony diameter; format: cell-based; conditions: Rhizoctonia, 96 h; 50 mg/kg
[19] = system: Bipolaria maydis; assay: organism not typed; format: cell-based; conditions: read-out: Bactericidal activity (%) Bipolaria maydis
[20] = system: potato late blight; assay: microbe, parasite or virus in culture; format: cell-based; conditions: Phytophthora infestans, 96 h, read-out: Bactericidal activity (%) potato late blight
[21] = system: tobacco mosaic virus (TMV); assay: Anti-TMV in vitro effect (half-leaf soaking); format: cell-based, tobacco mosaic virus (host Nicotiana tabacum L.cv.Xanthi NN); conditions: Tobacco mosaic virus, read-out: Relative inhibition rate (%) In vitro activity; for inhibition at 100 µg/mL: treatment dose 100 μg/mL; for inhibition at 500 µg/mL: treatment dose 500 μg/mL
[22] = system: corn borers; assay: whole plant or invertebrate; conditions: read-out: Corn borer Mortality (%)

Row | Structure (SMILES) | inhibition at 100 µg/mL [1] | inhibition at 500 µg/mL [1] | inhibition of growth at 50 mg/kg [2] | inhibition at 100 µg/mL [3] | inhibition at 500 µg/mL [3] | inhibition of growth at 50 mg/kg [4] | inhibition at 50 mg/kg [5] | inhibition of growth at 50 mg/kg [6] | inhibition of growth at 50 mg/kg [7] | inhibition of growth at 50 mg/kg [8] | Armyworm Mortality (%) [9] | inhibition of growth at 50 mg/kg [10] | mortality at 600 mg/kg [11] | mortality at 10 mg/kg [12] | inhibition of growth at 50 mg/kg [13] | inhibition of growth at 50 mg/kg [14] | inhibition of growth at 50 mg/kg [15] | inhibition of growth at 50 mg/kg [16] | inhibition at 100 µg/mL [17] | inhibition at 500 µg/mL [17] | other results
1 | Cc1nc(C(=O)O)cc2c1[nH]c1ccccc12 [Ia-11, 1-methyl-pyridino [3,4-b] indol-3-formic acid] | 0% | 29.6% | 42.9% | 0% | 21.4% | 35.7% | 82.4% | 60.6% | 63.6% | 35.7% | 10% | 50% | 10% | 50% | 72% | 33.3% | 38.1% | 19.1% | 0% | 27.3% | inhibition of growth at 50 mg/kg [18]: 53.1%; inhibition at 50 mg/kg [19]: 21.1%; inhibition of growth at 50 mg/kg [20]: 25%; inhibition at 100 µg/mL [21]: 0%; inhibition at 500 µg/mL [21]: 32.5%; mortality at 600 mg/kg [22]: 10%
2 | C[C@@H]1N[C@H](C(=O)O)Cc2c1[nH]c1ccccc21 [Ib-1, (1S, 3S)-1-methyl-2,3,4,9-tetrahydropyridino [3,4-b] indol-3-formic acid] | 15.8% | 40.4% | 26.3% | 20% | 41.3% | 26.2% | 23.8% | 18.8% | 21.2% | 21.4% | 25% | 30.8% | 25% | 55% | 7.8% | 21.1% | 35.7% | 19.2% | 13.5% | 35.5% | inhibition of growth at 50 mg/kg [18]: 42.1%; inhibition at 50 mg/kg [19]: 22.7%; inhibition of growth at 50 mg/kg [20]: 27.3%; inhibition at 100 µg/mL [21]: 18.9%; inhibition at 500 µg/mL [21]: 41.6%; mortality at 600 mg/kg [22]: 25%
3 | Cc1nccc2c1[nH]c1cc(OC(=O)[C@@H](NC(=O)OCc3ccccc3)C(C)C)ccc12 [Ia-9] | 0% | 12.5% | 52.6% | 0% | 19.6% | 35.7% | 78.6% | 50% | 51.5% | 21.4% | 5% | 61.5% | 20% | 25% | 13.7% | 36.8% | 50% | 38.5% | 0% | 13.6% | inhibition of growth at 50 mg/kg [18]: 84.2%; inhibition at 50 mg/kg [19]: 36.4%; inhibition of growth at 50 mg/kg [20]: 45.5%; inhibition at 100 µg/mL [21]: 0%; inhibition at 500 µg/mL [21]: 20.7%; mortality at 600 mg/kg [22]: 5%
